≈ marks a conversion by molar mass, not a printed value. Where two headings read alike, the source gives them in different places.
Assays:
[1] = Water solubility of the product; type: physicochemical; conditions: product of Example 6
Experimental: 200 ml of methylene dichloride and 2.0 g of the intermediate prepared according to Example 1 were added to a three-neck flask. 16 ml of triethylamine was added dropwise to the flask to dissolve the solid. 0.6 g of N,N′-diisopropylthiourea was added to the reaction mixture. The mixture was refluxed until the reaction was complete. A solid product appeared in the reaction mixture. The temperature was lowered and the crystallization was carried out for an hour. The solid was filtered and dried under vacuum to yield 1.5 g of the product. It has a pH value of 5.4 and cloudiness of lower than 1 degree (1 g/10 ml water). The product is water soluble.

Hemophilus influenzae = test: In vitro antibacterial activity test (MIC); type: cell-based; conditions: Haemophilus influenzae, read-out: minimum inhibitory concentration (MIC)
Experimental: (§1) In vitro antibacterial activity test of the cephalosporin compounds disclosed herein using the common methods known in the art were conducted.

Enterococcus = test: In vitro antibacterial activity test (MIC); type: cell-based; conditions: read-out: minimum inhibitory concentration (MIC)
Experimental: as §1

Streptococcus pneumoniae = test: In vitro antibacterial activity test (MIC); type: cell-based; conditions: read-out: minimum inhibitory concentration (MIC)
Experimental: as §1

Staphylococcus aureus = test: In vitro antibacterial activity test (MIC); type: cell-based; conditions: read-out: minimum inhibitory concentration (MIC)
Experimental: as §1

Pseudomonas aeruginosa = test: In vitro antibacterial activity test (MIC); type: cell-based; conditions: read-out: minimum inhibitory concentration (MIC)
Experimental: as §1

[2] = test system: Staphylococcus epidermidis; test: In vitro antibacterial activity test (MIC); type: cell-based; conditions: read-out: minimum inhibitory concentration (MIC)
Experimental: as §1

SPF grade mice = test: Acute toxicity test by intravenous injection; type: in vivo
Description: A commonly-used acute toxicity test method was used with SPF grade mice by intravenous injection.

[3] = Pharmacokinetic comparative experiment, intravenous injection, plasma by HPLC; type: in vivo, Beagle dogs
Experimental: The resulting BYS02 obtained from the Examples 6 and 7 as shown above was used to compare with cefathiamidine in the following pharmacokinetic study.
Commercially available cefathiamidine was used as the comparison in the pharmacokinetic study. Using the cross-over controlled trial experimental design, 6 healthy Beagle dogs were divided into two groups: one group of dogs were intravenously injected with 50 mg/kg.bw of the BYS02 and the other group of dogs were injected with 50 mg/kg.bw of cefathiamidine. Blood samples were taken every 12 hours. The drug plasma concentrations were analyzed using HPLC. The drug plasma concentration over the time data were analyzed using MCPKP program.
Six Beagle dogs were provided by Guangzhou Pharmaceutical Research Institute. They were healthy, male, one-year old, and each weighed 8.0±0.1 kg. The dogs were kept in single-dog cages and fed with water and food according to the standards for laboratory animals. One week before the tests, the dogs were examined for hearts, livers, and kidneys, and they were found normal.
BYS02 was prepared according to Example 6 with a purity of 90%. Cefathiamidine was purchased from the market. Heparin sodium, sodium hydrogen phosphate, citric acid, methanol, ethyl acetate and other agents used were analytical-pure. Propionitrile used was chromatographic-pure. Water is pure. High Performance Liquid Chromatography (HPLC) and high-speed refrigerated centrifuges were used in the tests.
Sixteen hours before and 4 hours after the administration, the Beagle dogs were not allowed to eat food but allowed to drink water freely. After intravenously injection with 50 mg/kg.bw of the BYS02 and cefathiamidine, respectively, the two groups of dogs were taken 3 ml of blood samples intravenously at 0, 0.083, 0.17, 0.25, 0.5, 1, 1.5, 2, 3, 4, 6, 9, and 12 hours. The dogs were administrated every other week and blood samples were collected according to the above schedule. The blood samples were added to centrifuge tubes, mixed with heparin, centrifuged at 4000 rpm for 10 minutes, and the serum samples were stored in a refrigerator at −20° C. until they were used.
Hypersil ODS2, C18 column (4.6 mm×150 mm, 5 μm); mobile phase: propionitrile/phosphate buffer (11/89 volume ratio); wavelength: 254 nm; flow rate: 1.0 ml/min; room temperature; sample size: 20 μl.
Preparation of phosphate buffer (pH 7.0): 2.76 g of sodium hydrogen phosphate, 1.29 g of citric acid and 1000 ml of water were mixed well and filtered.
Drug plasma concentration over the time data were analyzed using MCPKP program to calculate the pharmacokinetic parameters. The average values and standard deviations were also calculated.

Salmonella = test: In vitro antibacterial activity test (MIC); type: cell-based; conditions: read-out: minimum inhibitory concentration (MIC)
Experimental: as §1

[4] = test system: Streptococcus hemolyticus group A; test: In vitro antibacterial activity test (MIC); type: cell-based; conditions: Streptococcus pyogenes, read-out: minimum inhibitory concentration (MIC)
Experimental: as §1

Viridans streptococcus = test: In vitro antibacterial activity test (MIC); type: cell-based; conditions: read-out: minimum inhibitory concentration (MIC)
Experimental: as §1

Streptococcus pyogenes = test: In vitro antibacterial activity test (MIC); type: cell-based; conditions: read-out: minimum inhibitory concentration (MIC)
Experimental: as §1

[5] = single intravenous administration
[6] = Beagle dogs, intravenous injection, 50 mg/kg.bw

With `CC(C)N=C(NC(C)C)SCC(=O)NC1C(=O)N2C(C(=O)O)=C(CSc3nc(=O)c(=O)[nH]n3C)CSC12` (stereo not drawn) [Compound II, 3-((1,2,5,6-tetrahydro-2-methyl-5,6-dioxo-1,2,4-triazine-3-ylthio)methyl)-7-[[[[[(1-methylethyl)amino][(1-methylethyl)imino]methyl]thio]acetyl]amino]-8-oxo-5-thia-1-aza-bicyclo[4.2.0]oct-2-ene-2-carboxylic acid] the solubility in water [1] was “water soluble”, the MIC (Hemophilus influenzae) was 8 to 16 µg/mL (≈ 14 to 28 µM) and the MIC (Enterococcus) was 4 to 8 µg/mL (≈ 7 to 14 µM). The MIC (Streptococcus pneumoniae) was 0.125 to 0.5 µg/mL (≈ 0.219 to 0.875 µM), the MIC (Staphylococcus aureus) was 1 to 4 µg/mL (≈ 1.75 to 7 µM) and the MIC (Pseudomonas aeruginosa) was over 512 µg/mL. For the same molecule, the MIC [2] was 0.0312 to 2 µg/mL (≈ 0.0546 to 3.5 µM), the LD50 (SPF grade mice; [5]) was 672 mg/kg.bw and the “LD50 95% confidence limit” value (SPF grade mice; [5]) was 650-700 mg/kg.bw. For the same molecule, the mortality (SPF grade mice; single intravenous injection of 465 mg/kg.bw) was “No death”, the mortality (SPF grade mice; single intravenous injection of 930 mg/kg.bw or more) was “the animals died after 10 seconds of struggling” and the ClB [3, 6] was 0.47 ± 0.09 L/kg/h. The Co [3, 6] was 208.97 ± 61.16 µg/mL, the V1 [3, 6] was 0.25 ± 0.07 L/kg and the VB [3, 6] was 1.61 ± 0.30 L/kg. It also gave a t1/2α [3, 6] of 37.8 ± 7.2 min, a t1/2β [3, 6] of 2.19 ± 0.04 h and an AUC ([3]; male, dog, in vivo, Beagle dogs, intravenous injection, 50 mg/kg.bw, read-out: AUC) of 108 ± 18.2 µg·h/mL.
Work on `CO/N=C(\C(=O)N[C@@H]1C(=O)N2C(C(=O)O)=C(CSc3nc(=O)c(=O)[nH]n3C)CS[C@H]12)c1csc(N)n1` [Ceftriaxone, ceftriaxone, reference compound] yielded an MIC (Salmonella) of 0.125 µg/mL (≈ 0.225 µM), an MIC (Enterococcus) of over 512 µg/mL and an MIC (Staphylococcus aureus) of 32 to 64 µg/mL (≈ 57.7 to 115 µM). The MIC [2] was 2 to 8 µg/mL (≈ 3.61 to 14.4 µM).
`CC(=O)OCC1=C(C(=O)O)N2C(=O)[C@@H](NC(=O)CSC(=NC(C)C)NC(C)C)[C@H]2SC1` [cefathiamidine, reference compound] showed an AUC ([3]; dog, in vivo, iv, 50 mg/kg) of 42.25 ± 1.02 µg·h/mL, a ClB ([3]; dog, in vivo, iv, 50 mg/kg) of 1.18 ± 0.03 L/kg/h and a Co ([3]; dog, in vivo, iv, 50 mg/kg) of 90.84 ± 29.71 µg/mL. It also gave a V1 ([3]; dog, in vivo, iv, 50 mg/kg) of 0.59 ± 0.20 L/kg, a VB ([3]; dog, in vivo, iv, 50 mg/kg) of 1.11 ± 0.07 L/kg and a t1/2α ([3]; dog, in vivo, iv, 50 mg/kg) of 12.6 ± 8.4 min. For the same molecule, the t1/2β ([3]; dog, in vivo, iv, 50 mg/kg) was 0.65 ± 0.03 h.
For `Cc1nc(SCC2=C(C(=O)O)N3C(=O)C(NC(=O)CSC(=NC(C)C)NC(C)C)C3SC2)sc1CC(=O)O` (stereo not drawn) [Compound V, 3-[[[5-(carboxymethyl)-4-methyl-2-thiazolyl]thio]methyl]-7-[[[[[(1-methylethyl)amino][(1-methylethyl)imino]methyl]thio]acetyl]amino]-8-oxo-5-thia-1-aza-bicyclo[4.2.0]oct-2-ene-2-carboxylic acid], the MIC (Hemophilus influenzae) was over 256 µg/mL, the MIC (Salmonella) was 2 to 8 µg/mL (≈ 3.32 to 13.3 µM) and the MIC (Enterococcus) was 2 to 8 µg/mL (≈ 3.32 to 13.3 µM). The MIC (Staphylococcus aureus) was 0.25 to 2 µg/mL (≈ 0.415 to 3.32 µM), the MIC [4] was 0.125 to 1 µg/mL (≈ 0.208 to 1.66 µM) and the MIC (Viridans streptococcus) was 0.125 to 4 µg/mL (≈ 0.208 to 6.65 µM). It also gave an MIC (Streptococcus pyogenes) of 0.0312 to 0.5 µg/mL (≈ 0.0518 to 0.831 µM).

Reference: patent US7700581B2, “Cephalosporin compounds comprising a C3 thio-methyl moiety substituted with N-containing heterocyclic group, and a C7 thiourea acetamido group, their preparations and uses thereof” (Guangzhou Baiyunshan Pharmaceutical Co., Ltd., priority 2007, dated 2010)
